The source of these data is patent US11453690B2, “Receptor inhibitor, pharmaceutical composition comprising same, and use thereof” (BEIJING TIDE PHARMACEUTICAL CO., LTD., priority 2018, dated 2022).

The assay has as its target AT2 Receptor (AT2R) (Homo sapiens (Human), UniProt P50052). The assay can be described thus: Measurement of inhibitory activity on AT2 receptor (Tag-lite HTRF, Tb-labeled AT2R cells, angiotensin receptor red agonist). It is filed as binding. As to conditions: 1 h room temperature. On the procedure:
Measurement of Inhibitory Activity on AT1 Receptor ([…])/AT2 Receptor (AT2R)
Through the following steps, the inhibitory activity of the compound on AT1R/AT2R (IC50 value) was determined:
1) An appropriate amount of 1×TLB (Tag-lite Buffer) was prepared and well mixed for use.
2) The compound was diluted by 10 times with ddH2O or DMSO. The compound was then dilute to 4 times of the working concentration with 1×TLB and mixed well for use.
3) 8600 nM Tag-lite angiotensin receptor red agonist was diluted to 12 nM (4×Kd) with 1×TLB.
4) 5 ml 1×TLB was taken into a 15 ml centrifuge tube.
5) After thawing 1 tube of Tb-labeled AT1R/AT2R cells in a 37° C. water bath, the cells were quickly transferred to the 1×TLB in step 4), mixed gently, and centrifuged at 1200 g for 5 minutes at room temperature.
6) The supernatant was aspirated gently, and the cells were resuspended and mixed in 2.7 ml 1×TLB, and then placed at room temperature until use.
7) 10 μl cells were added to all test wells, and 5 μl 4× working solution of the compound from step 2) was added to the corresponding test wells. 5 μl 4× Tag-lite angiotensin receptor red agonist well diluted in step 3) was added to all test wells.
8) After leaving the reaction plate at room temperature for 1 h, data were measured and analyzed using Envision HTRF Reader, and the half inhibitory concentration (IC50) of the compound on AT1R/AT2R was calculated with the GraphPad Prism four-parameter equation.
Background: In TR-FRET formats the signal depends on donor and acceptor labels being close together.

Sequence of AT2 Receptor (AT2R) (P50052 whole entry): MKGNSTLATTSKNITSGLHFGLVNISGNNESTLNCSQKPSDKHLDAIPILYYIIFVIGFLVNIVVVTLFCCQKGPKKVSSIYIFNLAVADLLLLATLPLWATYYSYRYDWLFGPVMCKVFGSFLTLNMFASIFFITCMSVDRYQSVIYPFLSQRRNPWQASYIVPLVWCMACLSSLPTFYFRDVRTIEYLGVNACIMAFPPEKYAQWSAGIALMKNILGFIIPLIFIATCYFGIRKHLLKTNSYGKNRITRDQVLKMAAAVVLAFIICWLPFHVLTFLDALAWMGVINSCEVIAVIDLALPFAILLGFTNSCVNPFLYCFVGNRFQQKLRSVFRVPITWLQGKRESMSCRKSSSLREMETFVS

In turn, `CN(Cc1csc(Cl)c1)C(=O)N1[C@H]2CC[C@@H]1[C@@H](C(=O)O)N(C(=O)N(c1ccccc1)c1ccccc1)C2` [Compound C186, (1R,2S,5S)-8-(((5-chlorothiophene-3-yl)methyl) (methyl)carbamoyl)-3-(diphenylcarbamoyl)-3,8-diazabicyclo [3.2.1]octane-2-carboxylic acid] showed an IC50 of 64.6 nM. With `O=C(O)[C@@H]1[C@H]2CC[C@@H](CN1C(=O)N(c1ccccc1)c1ccccc1)N2C(=O)N(Cc1ccccc1)C1CC1` [Compound C153, (1R,2S,5S)-8-(benzyl (cyclopropyl)carbamoyl)-3-(diphenylcarbamoyl)-3,8-diazabicyclo [3.2.1]octane-2-carboxylic acid] the figure was 2.78 nM; with `CCN(Cc1csc(C)c1)C(=O)N1[C@H]2CC[C@@H]1[C@@H](C(=O)O)N(C(=O)N(c1ccccc1)c1ccccc1)C2` [Compound C208, (1R,2S,5S)-3-(diphenylcarbamoyl)-8-(ethyl((5-methylthiophen-3-yl)methyl)carbamoyl)-3,8-diazabicyclo [3.2.1]octane-2-carboxylic acid], 11.8 nM. With `CC(c1ccsc1)N(C)C(=O)N1[C@H]2CC[C@@H]1[C@@H](C(=O)O)N(C(=O)N(c1ccccc1)c1ccccc1)C2` (stereo partly drawn) [Compound C229, (1R,2S,5S)-3-(diphenylcarbamoyl)-8-(methyl (1-(thiophene-3-yl)ethyl)carbamoyl)-3,8-diazabicyclo[3.2.1] octane-2-carboxylic acid] the figure was 10.1 nM; with `O=C(O)[C@H]1[C@@H]2CC[C@H](CN1C(=O)C(c1ccccc1)c1ccccc1)N2C(=O)C(c1ccccc1)c1ccccc1` [Compound C2, (1S,2R,5R)-3,8-bis (2,2-diphenylacetyl)-3,8-diazabicyclo [3.2.1]octane-2-carboxylic acid], 9.11 nM; with `CN(Cc1ccccc1)C(=O)N1[C@H]2CC[C@@H]1[C@@H](C(=O)O)N(C(=O)C(C)(c1ccccc1)c1ccccc1)C2` [Compound C173, (1R,2S,5S)-8-(benzyl(methyl)carbamoyl)-3-(2,2-diphenylpropionyl)-3,8-diazabicyclo [3.2.1]octane-2-carboxylic acid], 5.57 nM. With `CC(Cc1ccccc1)C(=O)N1[C@H]2CC[C@@H]1[C@@H](C(=O)O)N(C(=O)C(c1ccccc1)c1ccccc1)C2` (stereo partly drawn) [Compound C230, (1R,2S,5S)-3-(2,2-diphenylacetyl)-8-(2-methyl-3-phenylpropionyl)-3,8-diazabicyclo [3.2.1]octane-2-carboxylic acid] the figure was 50.2 nM; with `CN(CC1CCCCC1)C(=O)N1[C@H]2CC[C@@H]1[C@@H](C(=O)O)N(C(=O)N(c1ccccc1)c1ccccc1)C2` [Compound C147, (1R,2S,5S)-8-((cyclohexylmethyl) (methyl)carbamoyl)-3-(diphenylcarbamoyl)-3,8-diazabicyclo [3.2.1]octane-2-carboxylic acid], 111 nM; with `CCN(Cc1ccsc1)C(=O)N1[C@H]2CC[C@@H]1[C@@H](C(=O)O)N(C(=O)C(c1ccccc1)c1ccccc1)C2` [Compound C188, (1R,2S,5S)-3-(2,2-diphenylacetyl)-8-(ethyl(thiophene-3-ylmethyl)carbamoyl)-3,8-diazabicyclo [3.2.1]octane-2-carboxylic acid], 7.11 nM. As for `CCN(Cc1ccc(C)s1)C(=O)N1[C@H]2CC[C@@H]1[C@@H](C(=O)O)N(C(=O)N(c1ccccc1)c1ccccc1)C2` [Compound C202, (1R,2S,5S)-3-(diphenylcarbamoyl)-8-(ethyl((5-methylthiophen-2-yl)methyl)carbamoyl)-3,8-diazabicyclo [3.2.1]octane-2-carboxylic acid], the IC50 is 3.87 nM. The compound `O=C(O)[C@@H]1[C@H]2CC[C@@H](CN1C(=O)N(c1ccccc1)c1ccccc1)N2C(=O)N(Cc1ccsc1)CC1CC1` [Compound C205, (1R,2S,5S)-8-((cyclopropylmethyl) (thiophene-3-ylmethyl)carbamoyl)-3-(diphenylcarbamoyl)-3,8-diazabicyclo [3.2.1]octane-2-carboxylic acid] returned a 50% inhibitory concentration (IC50) of 42.8 nM.

With `C=C(C)c1ccc(CN(C)C(=O)N2[C@H]3CC[C@@H]2[C@@H](C(=O)O)N(C(=O)N(c2ccccc2)c2ccccc2)C3)cc1` [Compound C215], the IC50 turned out to be 26.5 nM. The same measure for `O=C(O)[C@@H]1[C@H]2CC[C@@H](CN1C(=O)N(c1ccccc1)c1ccccc1)N2C(=O)C#Cc1ccccc1` [Compound C256, (1R,2S,5S)-3-(diphenylcarbamoyl)-8-(3-phenylpropioloyl)-3,8-diazabicyclo [3.2.1]octane-2-carboxylic acid]: 40 nM; for `O=C(O)[C@@H]1[C@H]2CC[C@@H](CN1C(=O)N(c1ccccc1)c1ccccc1)N2C(=O)N(c1ccccc1)c1ccccc1` [Compound C41, (1R,2S,5S)-3,8-bis (diphenylcarbamoyl)-3,8-diazabicyclo [3.2.1]octane-2-carboxylic acid]: 9.77 nM; for `O=C(O)[C@H]1[C@@H]2CC[C@H](CN1C(=O)OCc1ccccc1)N2C(=O)C(c1ccccc1)c1ccccc1` [Compound C75, (1S,2R,5R)-3-((benzyloxy)carbonyl)-8-(2,2-diphenylacetyl)-3,8-diazabicyclo[3. 2.1]octane-2-carboxylic acid]: 54 nM. The same measure for `CC(C)N(Cc1ccccc1)C(=O)N1[C@H]2CC[C@@H]1[C@@H](C(=O)O)N(C(=O)N(c1ccccc1)c1ccccc1)C2` [Compound C152, (1R,2S,5S)-8-(benzyl (isopropyl)carbamoyl)-3-(diphenylcarbamoyl)-3,8-diazabicyclo [3.2.1]octane-2-carboxylic acid]: 47.4 nM; for `O=C(O)[C@@H]1[C@H]2CC[C@@H](CN1C(=O)N(c1ccccc1)c1ccccc1)N2C(=O)N(Cc1cccs1)C1CC1` [Compound C200, (1R,2S,5S)-8-(cyclopropyl (thiophene-2-ylmethyl)carbamoyl)-3-(diphenylcarbamoyl)-3,8-diazabicyclo [3.2.1]octane-2-carboxylic acid]: 3.25 nM; for `O=C(O)[C@@H]1[C@H]2CC[C@@H](CN1C(=O)N(c1ccccc1)c1ccccc1)N2C(=O)Cc1c[nH]c2ccccc12` [Compound C259, (1R,2S,5S)-8-(2-(1H-indole-3-yl)acetyl)-3-(diphenylcarbamoyl)-3,8-diazabicyclo [3.2.1]octane-2-carboxylic acid]: 245 nM. The same measure for `O=C(O)[C@@H]1[C@H]2CC[C@@H](CN1C(=O)N1c3ccccc3C=Cc3ccccc31)N2C(=O)N(c1ccccc1)c1ccccc1` [Compound C7, (1R,2S,5S)-3-(5H-dibenzo[b,f]azepine-5-carbonyl)-8-(diphenylcarbamoyl)-3,8-diazabicyclo[3. 2.1]octane-2-carboxylic acid]: 82.7 nM; for `O=C(O)[C@@H]1[C@H]2CC[C@@H](CN1C(=O)N(c1ccccc1)c1ccccc1)N2C(=O)N1CCC[C@H]1c1cc(F)ccc1F` [Compound C142, (1R,2S,5S)-8-((S)-2-(2,5-difluorophenyl)pyrrolidine-1-carbonyl)-3-(diphenylcarbamoyl)-3,8-diazabicyclo [3.2.1]octane-2-carboxylic acid]: 654 nM; for `CC1(N(Cc2ccsc2)C(=O)N2[C@H]3CC[C@@H]2[C@@H](C(=O)O)N(C(=O)N(c2ccccc2)c2ccccc2)C3)CC1` [Compound C198]: 10.2 nM. For `CCN(Cc1csc(Cl)c1)C(=O)N1[C@H]2CC[C@@H]1[C@@H](C(=O)O)N(C(=O)N(c1ccccc1)c1ccccc1)C2` [Compound C274, (1R,2S,5S)-8-(((5-chlorothiophene-3-yl)methyl) (ethyl)carbamoyl)-3-(diphenylcarbamoyl)-3,8-diazabicyclo [3.2.1]octane-2-carboxylic acid], the IC50 worked out at 19.8 nM.

`C=CCc1ccc(CN(C)C(=O)N2[C@H]3CC[C@@H]2[C@@H](C(=O)O)N(C(=O)N(c2ccccc2)c2ccccc2)C3)cc1` [Compound C235, (1R,2S,5S)-8-((4-allylbenzyl)(methyl)carbamoyl)-3-(diphenylcarbamoyl)-3,8-diazabicyclo[3.2.1]octane-2-carboxylic acid] registered a concentration for half-maximal inhibition (IC50) of 6.78 nM. `Cc1ccc(CN(C(=O)N2[C@H]3CC[C@@H]2[C@@H](C(=O)O)N(C(=O)N(c2ccccc2)c2ccccc2)C3)C2CC2)s1` [Compound C204]: the half-maximal inhibitory concentration (IC50) stood at 4.93 nM. The same measure for `O=C(O)[C@@H]1[C@H]2CC[C@@H](CN1C(=O)N(c1ccccc1)c1ccccc1)N2C(=O)N(Cc1ccccc1)CC1CC1` [Compound C154, (1R,2S,5S)-8-(benzyl (cyclopropylmethyl)carbamoyl)-3-(diphenylcarbamoyl)-3,8-diazabicyclo [3.2.1]octane-2-carboxylic acid]: 19.8 nM; for `O=C(O)[C@H]1[C@@H]2CC[C@H](CN1C(=O)C(c1ccccc1)c1ccccc1)N2C(=O)OCc1ccccc1` [Compound C76, (1S,2R,5R)-8-((benzyloxy)carbonyl)-3-(2,2-diphenylacetyl)-3,8-diazabicyclo [3.2.1]octane-2-carboxylic acid]: 69.7 nM. `CCN(Cc1ccccc1F)C(=O)N1[C@H]2CC[C@@H]1[C@@H](C(=O)O)N(C(=O)N(c1ccccc1)c1ccccc1)C2` [Compound C156, (1R,2S,5S)-3-(diphenylcarbamoyl)-8-(ethyl(2-fluorobenzyl)carbamoyl)-3,8-diazabicyclo [3.2.1]octane-2-carboxylic acid] showed a concentration for half-maximal inhibition (IC50) of 10.1 nM.

In general, IC50 refers to the concentration at which inhibition is half-maximal.
